Experimental data taken from publication PMC6003700 (European journal of medicinal chemistry, 2018).
Square brackets hold non-standard residues; d marks the D form. Peptide text beside a SMILES is read from it. dPhe(4-CF3) = N[C@H](Cc1ccc(C(F)(F)F)cc1)C(=O)O; Nle = CCCC[C@H](N)C(=O)O

Columns and labels:
hMC1R = hMC1R (Homo sapiens, UniProt Q01726); test: cAMP accumulation, HEK293 cells expressing hMC1R; type: cell-based; conditions: hMC1R agonist EC50 versus other melanocortin receptors
[1] = tested on: hMC1R Asp117Ala and Asp121Ala mutants; conditions: hMC1R mutants versus wild type; cited from earlier work
[2] = tested on: hMC1R Asp117Ala and Asp121Ala mutants; conditions: hMC1R mutants versus wild type; cited from earlier work; remark: listed apart in the source
MC3R Asp158Ala mutation = conditions: MC3R mutant versus wild type; cited from earlier work

Sequence of hMC1R (Q01726 whole entry): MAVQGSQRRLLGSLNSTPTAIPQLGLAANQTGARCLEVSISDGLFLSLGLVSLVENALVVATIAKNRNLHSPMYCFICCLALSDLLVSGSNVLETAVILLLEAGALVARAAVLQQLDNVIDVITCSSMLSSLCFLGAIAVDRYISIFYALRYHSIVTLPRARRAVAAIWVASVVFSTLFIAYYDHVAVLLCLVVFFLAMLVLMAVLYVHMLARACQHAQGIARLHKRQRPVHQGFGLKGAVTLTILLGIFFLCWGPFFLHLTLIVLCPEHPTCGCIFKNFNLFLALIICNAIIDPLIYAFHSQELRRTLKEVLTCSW

hMC1R selectivity to other MCR subtypes (hMC1R) | Compound | increase on the IC50 value for the Asp117Ala and Asp121Ala mutants [1] | increase on the EC50 value for the Asp117Ala and Asp121Ala mutants [2] | increase for the EC50 value, Asp158Ala mutation (MC3R Asp158Ala mutation)
at least 25 fold | CCCC[C@H](NC(=O)[C@@H](Cc1ccc(C(F)(F)F)cc1)NC(=O)[C@H](Cc1cnc[nH]1)NC(C)=O)C(=O)N[C@@H](Cc1c[nH]c2ccccc12)C(N)=O [Peptide 5, Ac-His-DPhe(4-CF3)-Nle-Trp-NH2] (Ac-H[dPhe(4-CF3)][Nle]W-NH2) | – | – | –
– | NDP-α-MSH | around 10 fold | around 10 fold | more than 350 fold
